This note sets out measurements from patent US8895695B2, “Template-fixed beta-hairpin peptidomimetics with CXCR4 antagonizing activity” (priority 2003, dated 2014).

As a reminder, the GI50 is the concentration at which growth is held to half of that of the control. Lower therefore signals more potent growth inhibition. What is called half-life is the time needed for the level to fall by half in the phase considered. As usually defined, the IC50 is the concentration that inhibits the measured activity by half.

Data set [1] in a line: in vitro. The following applies: human.
In data set [2] the test system is human red blood cells (hRBC). Briefly: Hemolysis. Format: cell-based. The method, boiled down: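 Percent lysis taken as OD540 of peptide-treated sample over OD540 of the water/0.1% Triton X-100 full-lysis control, with PBS giving 0%. Peptides at 100 μM exposed to PBS-washed human RBCs (20% v/v) for 1 hour at 37° C. before centrifugation and 20-fold dilution of supernatant.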

The nature of data set [3]: in vitro. The following applies: plasma. Format: in vitro ADME. The method, then: 405 μl of plasma/albumin solution were placed in a polypropylene (PP) tube and spiked with 45 μl of compound from a 100 μM solution B, derived from 135 μl of PBS and 15 μl of 1 mM peptide in PBS, pH 7.4. 150 μl aliquots were transferred into individual wells of the 10 kDa filter plate (Millipore MAPPB 1010 Biomax membrane). For “0 minutes controls”: 270 μl of PBS were placed in a PP tube and 30 μl of stock solution B was added and vortexed. 150 μl of control solution was placed into one well of the filter plate and serves as “filtered control”.
Further 150 μl of control solution were placed directly into a receiver well (reserved for filtrate) and serve as “not-filtered control”. The entire plate including evaporation lid was incubated for 60 min at 37° C. Plasma samples (rat plasma: Harlan Sera lab UK, human plasma: Blutspendezentrum Zürich) were centrifuged at least for 2 h at 4300 rpm (3500 g) and 15° C. in order to yield 100 μl filtrate. For “serum albumin”-samples (freshly prepared human albumin: Sigma A-4327, rat albumin: Sigma A-6272, all at 40 mg/ml concentration in PBS) approximately 1 hour of centrifugation is sufficient. The filtrates in the receiver PP plate were analysed by LC/MS as followes: Column: Jupiter C18 (Phenomenex), mobile phases: (A) 0.1% formic acid in water and (B) acetonitrile, gradient: 5%-100% (B) in 2 minutes, electrospray ionization, MRM detection (triple quadrupole). The peak areas were determined and triplicate values are averaged. The binding is expressed in percent of the (filtered and not-filtered time point 0 min) control 1 and 2 by: 100−(100*T60/T0). The average from these values is then calculated (see ref. 9 below).

A further data set concerns the target CXCR4 (Homo sapiens, UniProt P61073). Briefly: Ca2+-assay method 2 (Flexstation, SDF-1 induced calcium mobilization). More on the design: expressed in transfected cells; host or cells: mouse pre-B cell line 300-19. The following applies: method 2 (Ex. 54-160), mouse pre-B cell line 300-19 with human CXCR4, 10 nM SDF-1; read-out: IC50 (nM) Ca^2+ assay. Type of data set: cell-based. On the technique in general: Calcium assays in cells follow changes in intracellular calcium, usually with a dye or a luminescent sensor.

Numbered stars: 1 amine (or outer) side, 2 acyl side, 3 side chain; on linkers, the order of the positions; unused ones are H or OH. Bridge positions count the residues as written; N and C are the ends. Square brackets hold non-standard residues; d marks the D form. Peptide text beside a SMILES is read from it. X1 = CC(C)CN(CCC[C@H](N[*:1])C(=O)[*:2])CC(C)C; 2Nal = N[C@@H](Cc1ccc2ccccc2c1)C(=O)O; Cit = NC(=O)NCCC[C@H](N)C(=O)O; Dab = NCC[C@H](N)C(=O)O
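For GI50 in this document: MTT reduction read as absorbance at 595 nm, blank-corrected and expressed as percent growth relative to the time-zero cell reading, triplicate wells per concentration.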

Chain of CXCR4 (P61073 whole entry): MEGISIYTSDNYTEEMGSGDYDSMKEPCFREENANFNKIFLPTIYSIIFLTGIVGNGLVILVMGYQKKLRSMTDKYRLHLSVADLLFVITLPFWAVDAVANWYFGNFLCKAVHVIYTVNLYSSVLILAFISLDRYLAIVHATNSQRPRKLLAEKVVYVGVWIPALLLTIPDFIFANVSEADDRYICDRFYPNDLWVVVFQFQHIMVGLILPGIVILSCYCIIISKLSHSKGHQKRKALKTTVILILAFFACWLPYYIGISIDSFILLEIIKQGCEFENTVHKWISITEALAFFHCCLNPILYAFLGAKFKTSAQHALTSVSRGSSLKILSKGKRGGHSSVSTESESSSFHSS

`N=C(N)NCCC[C@@H]1NC(=O)[C@@H]2CSSC[C@H](NC(=O)[C@H](Cc3ccc4ccccc4c3)NC(=O)[C@H](CCCNC(=N)N)NC(=O)[C@H](CCCNC(=N)N)NC(=O)[C@H]3CCCN3C(=O)CNC1=O)C(=O)N[C@@H](Cc1ccc(O)cc1)C(=O)N[C@@H](CCC(N)=O)C(=O)N[C@@H](CCCCN)C(=O)N1CCC[C@@H]1C(=O)N1CCC[C@H]1C(=O)N[C@@H](Cc1ccc(O)cc1)C(=O)N[C@@H](CCCNC(=N)N)C(=O)N[C@@H](CCC(=O)O)C(=O)N2` [Ex. 75] (cyclo(YRECRG[dP]RR[2Nal]CYQK[dP]P); disulfide 4-11) gave a GI50 at 48 h in “in vitro [1]” greater than 100 µM. Besides, in data set [2], the Hemolysis at 100 μM was determined as 0%. In addition, the half-life at 10 μM in “in vitro [3]” (human) is 3.13 h; in “in vitro [3]” (rat) it was 2.37 h. Also, on CXCR4, the IC50 worked out at 3.5 nM.
As to `N=C(N)NCCC[C@@H]1NC(=O)[C@@H]2CCNC(=O)CC[C@H](NC(=O)[C@H](Cc3c[nH]c4ccccc34)NC(=O)[C@H](CCCNC(=N)N)NC(=O)[C@H](CCCNC(=N)N)NC(=O)[C@H]3CCCN3C(=O)CNC1=O)C(=O)N[C@@H](Cc1ccc(O)cc1)C(=O)N[C@@H](CCCNC(N)=O)C(=O)N[C@@H](CCCCN)C(=O)N1CCC[C@@H]1C(=O)N1CCC[C@H]1C(=O)N[C@@H](Cc1ccc(O)cc1)C(=O)N[C@@H](CCCNC(=N)N)C(=O)N[C@@H](CCCNC(N)=O)C(=O)N2` [Ex. 152] (cyclo(YR[Cit][Dab]RG[dP]RRWEY[Cit]K[dP]P); lactam 4-11), in “in vitro [1]”, the GI50 at 48 h is 46 µM. Further, the Hemolysis at 100 μM in data set [2] worked out at 0%. Further, the figures for the half-life at 10 μM in “in vitro [3]” (human) and in “in vitro [3]” (rat) were 0.383 h and 1.43 h, respectively. For the same molecule, the IC50 on CXCR4 stood at 4.2 nM.
With `N=C(N)NCCC[C@@H]1NC(=O)[C@H](CO)NC(=O)[C@H](CCCNC(N)=O)NC(=O)[C@H](CCCNC(=N)N)NC(=O)[C@H](Cc2ccc(O)cc2)NC(=O)[C@@H]2CCCN2C(=O)[C@H]2CCCN2C(=O)[C@H](CCCCN)NC(=O)[C@H](CCCNC(N)=O)NC(=O)[C@H](Cc2ccc(O)cc2)NC(=O)[C@H](CC(N)=O)NC(=O)[C@H](Cc2c[nH]c3ccccc23)NC(=O)[C@H](CCCNC(=N)N)NC(=O)[C@H](CCCNC(=N)N)NC(=O)[C@H]2CCCN2C(=O)CNC1=O` [Ex. 151] (cyclo(YR[Cit]SRG[dP]RRWNY[Cit]K[dP]P)), the 50% growth inhibitory concentration (GI50) at 48 h in “in vitro [1]” was determined as 83 µM. Moreover, in data set [2], the Hemolysis at 100 μM is 0.9%. Moreover, the figures for the half-life at 10 μM in “in vitro [3]” (human) and in the data set “in vitro [3]” (rat) were 1.48 h and 1.18 h, respectively. Besides, the IC50 at CXCR4 turned out to be 4.2 nM.
The like results for `N=C(N)NCCC[C@@H]1NC(=O)[C@@H]2CSSC[C@H](NC(=O)[C@H](Cc3c[nH]c4ccccc34)NC(=O)[C@H](CCCNC(=N)N)NC(=O)[C@H](CCCNC(=N)N)NC(=O)[C@H]3CCCN3C(=O)CNC1=O)C(=O)N[C@@H](Cc1ccc(O)cc1)C(=O)N[C@@H](CCCNC(N)=O)C(=O)N[C@@H](CC(=O)O)C(=O)N1CCC[C@@H]1C(=O)N1CCC[C@H]1C(=O)N[C@@H](Cc1ccc(O)cc1)C(=O)N[C@@H](CCCNC(=N)N)C(=O)N[C@@H](CO)C(=O)N2` [Ex. 102] (cyclo(YRSCRG[dP]RRWCY[Cit]D[dP]P); disulfide 4-11) were, in that order, 33 µM, 0.5%, 4.25 h, 4.08 h and 8 nM.
In the data set “in vitro [1]”, `N=C(N)NCCC[C@@H]1NC(=O)[C@@H]2CSSC[C@H](NC(=O)[C@H](Cc3ccc4ccccc4c3)NC(=O)[C@H](CCCNC(=N)N)NC(=O)[C@H](CCCNC(=N)N)NC(=O)[C@H]3CCCN3C(=O)CNC1=O)C(=O)N[C@@H](Cc1ccc(O)cc1)C(=O)N[C@@H](CCC(N)=O)C(=O)N[C@@H](CCCCN)C(=O)N1CCC[C@@H]1C(=O)N1CCC[C@H]1C(=O)N[C@@H](CCC(=O)O)C(=O)N[C@@H](CCCNC(=N)N)C(=O)N[C@@H](CCCNC(N)=O)C(=O)N2` [Ex. 68] (cyclo(ER[Cit]CRG[dP]RR[2Nal]CYQK[dP]P); disulfide 4-11) yielded a GI50 at 48 h greater than 100 µM. In data set [2], this molecule showed a Hemolysis at 100 μM of 0.1%. Further, the half-life at 10 μM stood at 2.12 h in the data set “in vitro [3]” (human) and 1.35 h in the data set “in vitro [3]” (rat). Also, the IC50 on CXCR4 was determined as 1.1 nM.
Take `C[C@@H](O)[C@@H]1NC(=O)[C@H](Cc2c[nH]cn2)NC(=O)[C@H](Cc2ccc(O)cc2)NC(=O)[C@@H]2CCCN2C(=O)[C@H]2CCCN2C(=O)[C@H](CCCCN)NC(=O)[C@H](CCC(N)=O)NC(=O)[C@H](Cc2ccc(O)cc2)NC(=O)[C@@H]2CSSC[C@H](NC1=O)C(=O)N[C@@H](CCCNC(=N)N)C(=O)NCC(=O)N1CCC[C@@H]1C(=O)N[C@@H](CCCNC(=N)N)C(=O)N[C@@H](CCCNC(=N)N)C(=O)N[C@@H](Cc1c[nH]c3ccccc13)C(=O)N2` [Ex. 120] (cyclo(YHTCRG[dP]RRWCYQK[dP]P); disulfide 4-11): it took 78 µM to inhibit growth in the data set “in vitro [1]” by half (GI50 at 48 h). Also, the Hemolysis at 100 μM in data set [2] was determined as 0%. Besides, the results for the half-life at 10 μM in “in vitro [3]” (human) and in the data set “in vitro [3]” (rat) were 0.65 h and 2.9 h, respectively.
In the data set “in vitro [1]”, `N=C(N)NCCC[C@@H]1NC(=O)[C@@H]2CSSC[C@H](NC(=O)[C@H](Cc3ccc4ccccc4c3)NC(=O)[C@H](CCCNC(=N)N)NC(=O)[C@H](CCCNC(=N)N)NC(=O)[C@H]3CCCN3C(=O)CNC1=O)C(=O)N[C@@H](Cc1ccc(O)cc1)C(=O)N[C@@H](CCC(N)=O)C(=O)N[C@@H](CCC(=O)O)C(=O)N1CCC[C@@H]1C(=O)N1CCC[C@H]1C(=O)N[C@@H](Cc1ccc(O)cc1)C(=O)N[C@@H](CCCNC(=N)N)C(=O)N[C@@H](CCCNC(N)=O)C(=O)N2` [Ex. 61] (cyclo(YR[Cit]CRG[dP]RR[2Nal]CYQE[dP]P); disulfide 4-11) returned a GI50 at 48 h greater than 100 µM. The molecule also gave a Hemolysis at 100 μM in data set [2] of 0.3%. Further, the half-life at 10 μM was 4.55 h in the data set “in vitro [3]” (human) and greater than 5 h in the data set “in vitro [3]” (rat). The IC50 at CXCR4 worked out at 4.1 nM.
For `CC(C)CN(CCC[C@@H]1NC(=O)[C@H]2CCCN2C(=O)CNC(=O)[C@H](CCCNC(=N)N)NC(=O)[C@@H]2CSSC[C@H](NC(=O)[C@H](Cc3ccc4ccccc4c3)NC(=O)[C@H](CCCNC(=N)N)NC1=O)C(=O)N[C@@H](Cc1ccc(O)cc1)C(=O)N[C@@H](CCCNC(N)=O)C(=O)N[C@@H](CCCCN)C(=O)N1CCC[C@@H]1C(=O)N1CCC[C@H]1C(=O)N[C@@H](Cc1ccc(O)cc1)C(=O)N[C@@H](CCCNC(=N)N)C(=O)N[C@@H](CCCNC(N)=O)C(=O)N2)CC(C)C` [Ex. 124] (cyclo(YR[Cit]CRG[dP][X1]R[2Nal]CY[Cit]K[dP]P); disulfide 4-11), the GI50 at 48 h in the data set “in vitro [1]” was found to be 21 µM. In data set [2], this molecule showed a Hemolysis at 100 μM of 0%. Moreover, the half-life at 10 μM in “in vitro [3]” (human) and in the data set “in vitro [3]” (rat) was greater than 5 h in each case. In addition, the half-inhibitory concentration (IC50) on CXCR4 stood at 5.9 nM.
In turn, `N=C(N)NCCC[C@@H]1NC(=O)[C@@H]2CSSC[C@H](NC(=O)[C@H](Cc3ccc4ccccc4c3)NC(=O)[C@H](CCCNC(=N)N)NC(=O)[C@H](CCCNC(=N)N)NC(=O)[C@H]3CCCN3C(=O)CNC1=O)C(=O)N[C@@H](Cc1ccc(O)cc1)C(=O)N[C@@H](CCC(N)=O)C(=O)N[C@@H](CCC(N)=O)C(=O)N1CCC[C@@H]1C(=O)N1CCC[C@H]1C(=O)N[C@@H](Cc1ccc(O)cc1)C(=O)N[C@@H](CCCNC(=N)N)C(=O)N[C@@H](CCCNC(N)=O)C(=O)N2` [Ex. 60] (cyclo(YR[Cit]CRG[dP]RR[2Nal]CYQQ[dP]P); disulfide 4-11) returned a GI50 at 48 h in the data set “in vitro [1]” of 62 µM. In data set [2], this molecule displayed a Hemolysis at 100 μM of 0.1%. Further, the half-life at 10 μM in the data set “in vitro [3]” (human) and in the data set “in vitro [3]” (rat) was greater than 5 h each time. In addition, at CXCR4, the half-maximal inhibitory concentration (IC50) was 0.18 nM.
On to `N=C(N)NCCC[C@@H]1NC(=O)[C@@H]2CSSC[C@H](NC(=O)[C@H](Cc3c[nH]c4ccccc34)NC(=O)[C@H](CCCNC(=N)N)NC(=O)[C@H](CCCNC(=N)N)NC(=O)[C@H]3CCCN3C(=O)CNC1=O)C(=O)N[C@@H](Cc1ccc(O)cc1)C(=O)N[C@@H](CCCNC(N)=O)C(=O)N[C@@H](CCCCN)C(=O)N1CCC[C@@H]1C(=O)N1CCC[C@H]1C(=O)N[C@@H](Cc1ccc(O)cc1)C(=O)N[C@@H](CCCNC(=N)N)C(=O)N[C@@H](CCCNC(N)=O)C(=O)N2` [Ex. 123] (cyclo(YR[Cit]CRG[dP]RRWCY[Cit]K[dP]P); disulfide 4-11), for which the GI50 at 48 h in “in vitro [1]” stood at 80 µM. The Hemolysis at 100 μM in data set [2] is 0%. Further, at CXCR4, the IC50 was 10 nM.
